Experimental data as given in US8652439B2, “Compositions of HSP60 peptides and viral antigens for vaccination and diagnosis” (priority 2005, dated 2014).
“Also recorded” adds a separate entry of the source.

What was measured:
[1] = system: MCMV; experiment: Immunization after MCMV challenge in combination with Gancyclovir; MCMV-DNA PCR in salivary glands; format: in vivo, BALB/c mice; conditions: day 30 after challenge; GCV i.p. with or without one immunization on day 6
Method: DNA was extracted from naïve and infected spleens and salivary gland using QiAmp Tissue Kit (QIAGEN Inc. Chatsworth, Calif., USA), according to appropriate QiAmp protocols. DNA oligonucleotide primers were synthesized according to the published sequence of MCMV gB gene (Rapp et al., 1992). […]. This gB gene primer pair amplifying a 356 bp segment was found the most sensitive in previous studies (Palmon et al., 1996). For gene amplification, 1 μg of DNA sample was added to the reaction mixture containing 200 μM each dNTP, 100 pmol each primer, 1.0 mM MgSO4, 10 mM KCl, 10 mM (NH4)2SO4, 20 mM Tris-HCl (pH 8.8), 0.1% Triton X-100 and 2 U of vent polymerase (Biolabs) in a total reaction volume of 50 μl each. Samples were amplified for 30 cycles in an automated thermal cycler (Perkin Elmer Cetus, USA). Each cycle entailed denaturation at 94° C. for 60 sec, annealing at 68° C. for 90 sec and primer extension at 72° C. for 120 sec. PCR products were electrophoretically separated on 1.5% agarose gel, stained with ethidium bromide, and photographed. The lower limit of detection for this method under the experimental conditions was 5 femtograms of viral DNA corresponding to about 20 copies of the MCMV genome (Palmon et al., 1996).
3-week old BALB/c mice were challenged i.p. with 5×10^4 pfu of MCMV (day 0). On day 6, mice were immunized once with IFA alone, 89pep or p458-89pep emulsified in IFA, as described above. Mice were treated with 100 μg of the anti viral medication Gancyclovir (GCV, Roche, Basel, Switzerland) i.p. on days 1, 2, 3, 4, 8, 9, 10 and 11 after challenge. Mice were sacrificed on day 30 after challenge and MCMV-DNA was measured by a PCR assay in the salivary glands, as specified above (FIG. 14A).

[2] = system: MCMV; experiment: Infectious MCMV titers in salivary gland of immunized mice after MCMV challenge (plaque assay); format: in vivo, BALB/c mice; conditions: for Infectious MCMV titer in salivary gland: immunized twice, peptides in IFA
[3] = system: salivary gland mononuclear cells; experiment: IFNγ-positive salivary gland mononuclear cells 28 days after MCMV challenge of vaccinated mice; format: in vivo, BALB/c mice; conditions: 28 days after virus challenge of immunized mice; 8 hr 89pep stimulation
[4] = system: splenocytes; experiment: Proliferation of splenocytes from mice immunized with p15 conjugates, stimulated in vitro with p15; format: in vivo; conditions: spleens 10 days after immunization; p15 25 μg/ml, 3 days
Method: (§1) Mice were immunized with the following peptides as described in Example 8 using the following peptides: p15 (SEQ ID NO:11), p32 (SEQ ID NO:13), Ec27-p15 ([…], SEQ ID NO:77), and Mock-p15 ([…], SEQ ID NO:80—the p431 peptide fused to p15).
(§2) Spleens were harvested 10 days after the immunization and splenocytes were cultured with p15 (25 μg/ml) for 3 days. Cell proliferation and IFNγ levels in the supernatants of spleen cell cultures were measured. Results are the average of 3 independent proliferation experiments. Ec27-Ep15* and Ec27-Ep15** are two identical but independent groups in the same experiment.

[5] = system: IFN-γ; experiment: IFN-γ secretion of splenocytes from mice immunized with p15 conjugates, stimulated in vitro with p15; format: in vivo; conditions: spleens 10 days after immunization; p15 25 μg/ml, 3 days
Method: as §1, §2

[6] = system: IVIG-IL (anti-WNV Abs); experiment: ELISA recognition of peptides by IVIG-IL; format: binding, human; conditions: peptide 1 μg/well; IVIG-IL 1:40 dilution
Method: (§3) ELISA tests were performed according to the method described by Martin et al (Martin et al, 2000) with slight modifications. Briefly, microtiter plates were coated and incubated overnight at 4° C. with 100 μl of the different peptides (1 μg/well) or WNV antigen diluted 1:700 in coating buffer (NaHCO3, pH=9.6). After incubation, the coating buffer was decanted and the plates were washed twice in PBS containing 0.05% Tween 20 and 0.2% sodium azide (washing buffer). After blocking for 1 h with a 200 μl/wen of PBS containing 0.05% Tween 20 and 2.5% nonfat dry milk, the plates were washed 4 times in washing buffer and 100 μl of IVIG-IL or mouse sera at 1:40 dilution were added to each well (2-4 wells per sample). Negative and positive controls of human or mouse sera were tested in each plate. […] The color intensity was measured by ELISA-reader (Dynatec MR 5000) at the absorbance of 405 nm.
(§4) Next, it was examined whether the candidate epitope is recognized by a serum immunoglobulin pool taken from Israeli donors (IVIG-IL), which contains anti-WNV Abs. […] After blocking and washing, IVIG-IL was added at 1:40 dilution and binding was detected. […]

[7] = system: serum from WNV-infected mice; experiment: ELISA recognition of peptides by serum from WNV-infected mice; format: binding; conditions: peptide 1 μg/well; sera 1:40 dilution
Method: as §3, §4

[8] = system: WNV; experiment: Protective efficacy of immunization against WNV challenge (mortality); format: in vivo, BALB/c mice; conditions: for Mortality (% deaths) / Mortality (dead of total): 3 immunizations, 10^6 pfu WNV, 21 days post challenge, 5 experiments
[9] = system: sera from WNV-exposed human subjects; experiment: ELISA recognition of WNV peptides by human sera; format: binding; conditions: for Recognition by sera of WNV-exposed and unexposed human subjects: ELISA, peptide as antigen
Method: Sera from WNV-exposed and non-exposed human subjects was assayed for antibodies recognizing the novel WNV peptide antigens, p15 (SEQ ID NO:11) and p17 (SEQ ID NO:21). FIG. 17 presents the results of an ELISA test in which the p15 and p17 served as the antigen, human sera were used as the primary antibody and HRP-conjugated anti-human Abs were used as the secondary antibody. RLU are the relative luminescence units produced by HRP activity on the luminal substrate.
Sera S2 and S6 are from human that were not infected with WNV while sera S1, S3-S5 and S7 are from human that had history of WNV infection.

[10] = system: IFNγ; experiment: IFNγ ELISA of spleen and salivary gland cell cultures after vaccination; format: in vivo, BALB/c mice; conditions: 10 days after single immunization; for IFNγ secretion of spleen cells stimulated in vitro with p458: 3 d stimulation with p458
[11] = system: IL-4; experiment: IL-4 ELISA of spleen cell cultures after vaccination; format: in vivo, BALB/c mice; conditions: spleen cell cultures of immunized mice
[12] = system: MCMV gB DNA; experiment: PCR of MCMV gB DNA in salivary glands of immunized, MCMV-challenged mice; format: in vivo, BALB/c mice; conditions: day 28 after MCMV challenge
[13] = system: IFNγ-positive spleen cells; experiment: FACS intracellular IFNγ staining of spleen cells after vaccination; format: in vivo, BALB/c mice; conditions: 7 days after one immunization; 5 days re-stimulation with 89pep
Method: For phenotypic analysis, spleen and salivary gland mononuclear cells of MCMV-infected and naïve mice were cultured as described above and were stained for CD8 and CD4, IFNγ and IL-5 using directly-labeled antibodies (PharMingen, San Diego, Calif.). Intracellular cell staining (ICCS) for IFNγ, IL-4 and IL-5 was performed using PharMingen's Cytofix/Cytoperm Plus kit with GolgiPlug (containing Brefeldin A) according to the manufacturer's instructions. Briefly, GolgiPlug was added to the 8 h-incubated immune cell cultures (established as described above, with or w/o peptide stimulation). After the additional 6 h of incubation in the incubator cells (minimum 10^6 per sample) were harvested, washed in PBS supplemented with 2% FBS and 0.09% Sodium azide, and incubated in 50 μl of FC blocker, labeled with anti-CD4 and anti-CD8 surface markers. Then cells were fixed, permeabilized and treated with anti-IFNγ, anti-IL-4 or anti-IL-5 antibodies for intracellular cytokine detection. Stained cells were immediately analyzed on a FACSCalibur flow cytometer (Becton-Dickinson, Mansfield, Mass.) and 50,000 to 100,000 events/sample were acquired and analyzed with CellQuest software.
We characterized the nature of cells secreting the IFNγ by flow cytometry. Mice were immunized once with the different peptides and an additional group was infected with MCMV. Seven days later, spleens were removed and cell suspensions were cultured for 5 days with or without 89pep. […] Infection with MCMV and re-stimulation with 89pep induced the highest percentage of IFNγ^+CD8^+ T cells (FIG. 5B). Staining was specific to IFNγ since no CD8^+IL-4^+ or CD8^+IL-5^+ cells were observed.

[14] = system: P815 cells pulsed with the 89pep; experiment: Cytotoxic T cell assay of spleen cell cultures after vaccination; format: in vivo, BALB/c mice; conditions: spleens 7 d after one immunization, 6 days re-stimulation with 89pep; P815 loaded with 89pep
Method: The cytotoxic activity against the MCMV 89pep was assessed in a 4-h cytotoxic assay using the CytoTox 96 non-radioactive, colorimetric-based kit (Promega, Madison, Wis.), according to manufacturer instructions. This assay is based on the quantitative measurement of lactate dehydrogenase, a stable cytosolic enzyme that is released upon cell lysis. Spleen cell suspensions from immunized mice, prepared as described above, were re-stimulated in vitro for 6 days with 89pep (10 μg/ml) and rhIL-2 (25 IU/ml) from day 2. Target cells for the lysis assay were P815 cells (mastocytoma, H-2^d). P815 were either non-pulsed or pulsed with 89pep (1 μg/ml) for 2 h and then washed before incubation with effector cells. In all experiments shown, the spontaneous release was less than 25% of maximal release. Each point in a lysis assay represents the average of triplicate values. The range of the triplicates was within 5% of their mean.
We also investigated whether the CD8^+IFNγ^+ cells induced by the p458-89pep were able to lyse specifically 89pep-loaded target cells. Mice were immunized once and 7 d later, spleens were harvested and re-stimulated with 89pep. Six days later, lytic activity was assayed on P815 (H-2^d) loaded with the 89pep. […]

With `Nc1nc(O)c2ncn(COC(CO)CO)c2n1` [GCV, Gancyclovir] the “CMV load at the salivary gland (MCMV-DNA PCR)” value (“CMV load at the salivary gland” below) [1] was “did not suffice for therapy”.
In the case of “EGDEATGANI-KVALEAYPHFHPTNL (EGDEATGANIKVALEAYPHFHPTNL) [control-89pep]”, the “Effect of immunization on salivary gland viral load” value (“Effect of immunization” below) ([2]; day 28 after MCMV challenge) is reported as “did not affect the viral load”.
With “FNNFTVSFWLRVPKVSASHLEYPHFMPTNL [TTp30-89pep]” the “Effect of immunization” value ([2]; day 28 after MCMV challenge) was “reduced viral load on day 28 by two fold; also recorded: failed to eliminate infectious virus on day 28; also recorded: contained infectious virus on day 28 post challenge”, the “Effect of immunization” value ([2]; days 14 and 21 after MCMV challenge) was “did not affect viral load on days 14 and 21” and the “CD8+IFNγ+ cells in salivary gland” value [3] was “CD8^+IFNγ^+ cells were observed”.
With “KKARVEDALHATRAAVEEGVLVTVNPFVSVATANS [Ec27-p15]” the “Proliferation of spleen cells in the presence of p15” value [4] was “more effective than p15 alone” and the “IFN-γ secretion of spleen cells in the presence of p15” value [5] was “more effective than p15 alone”.
In the case of LVTVNPFVSVATANS [p15], the “Recognition by IVIG-IL” value [6] is reported as “recognized by IVIG-IL”, the “Recognition by serum from WNV-infected mice” value [7] is reported as “specifically recognized” and the “Mortality (% deaths)” value [8] is reported as “(53%)”. For the same compound, the “Mortality (dead of total)” value [8] was 8/15, the “Protective efficacy against WNV challenge” value ([8]; summary of 5 experiments) was “slight protective efficacy” and the “Recognition by sera of WNV-exposed and unexposed human subjects” value [9] was “specifically recognized by WNV-exposed sera and not by sera from unexposed subjects”. For the same compound, the “Recognition by sera from Dengue-infected humans” value ([9]; data not shown) was “did not recognize”.
For NEDQKIGIEIIKRALKI [p458], the “IFNγ secretion of spleen cells stimulated in vitro with p458” value [10] was “high levels of IFNγ”, the “IL-4 levels after Con-A stimulation in vitro” value (“IL-4 levels” below) [11] was 184 pg/mL and the “Mortality (% deaths)” value [8] was “(57%)”. The “Mortality (dead of total)” value [8] was 4/7.
NEDQKIGIEIIKRALKIYPHFHPTNL [p458-89pep] was tested, and the “Effect of immunization” value ([2]; day 28 after MCMV challenge) was “showed no infectious MCMV in the salivary gland”, the “Infectious MCMV titer in salivary gland” value ([2]; day 28 after MCMV challenge) was < 2 log10 pfu/0.1 g and the “MCMV gB PCR product in salivary glands” value [12] was “failed to reveal any gB PCR product”. The “IFNγ secretion of spleen cells stimulated in vitro with p458” value [10] was “high levels of IFNγ”, the “IFNγ secretion of spleen cells re-stimulated in vitro with 89pep” value ([10]; 3 d stimulation, 89pep 10 μg/ml) was “significantly higher (p<0.05) levels of IFNγ” and the “IL-4 levels” value [11] was 317 pg/mL. The “IFNγ+CD4+ T cells in spleen cell cultures” value [13] was “no IFNγ^+CD4^+ T cells”, the “IFNγ+CD8+ T cells in spleen cell cultures” value [13] was “induced IFNγ^+CD8^+ T cells” and the “89pep-specific lytic (CTL) activity” value [14] was “lysed the target cells”. The “CD8+IFNγ+ cells in salivary gland” value [3] was “larger than that of the other groups” and the “CMV load at the salivary gland” value [1] was “reduced viral load to undetectable levels”.
In the case of YIVVGRGEQQINHHWHK [p17], the “Recognition by sera of WNV-exposed and unexposed human subjects” value [9] is reported as “specifically recognized by WNV-exposed sera and not by sera from unexposed subjects”.
With YPHFHPTNL [89pep] the “Effect of immunization” value ([2]; day 28 after MCMV challenge) was “marginal advantage compared to IFA-immunized mice; also recorded: contained infectious virus on day 28 post challenge”, the “Infectious MCMV titer in salivary gland” value ([2]; day 28 after MCMV challenge) was 4.5 log10 pfu/0.1 g and the “IL-4 levels” value [11] was 146 pg/mL. The “IFNγ+CD8+ T cells in spleen cell cultures” value [13] was “very few IFNγ^+CD8^+ T cells”, the “89pep-specific lytic (CTL) activity” value [14] was “No lytic activity was observed” and the “CD8+IFNγ+ cells in salivary gland” value [3] was “CD8^+IFNγ^+ cells were observed”. The “CMV load at the salivary gland” value [1] was “did not affect CMV load”.
